{"source": "patent US8507471B2", "about": "“Biphenylcarboxamide derivatives as hedgehod pathway modulators” (IRM LLC, priority 2007, dated 2013)", "key": {"[1]": {"test_system": "lymphoma cells expressing luciferase", "assay": "Inhibiting Hh pathway abrogates lymphoma expansion in vivo (bioluminescence imaging)", "design": "species or system syngeneic C57BL/6 mice", "details": "50 mg/kg/day", "experimental": "Stroma produced hedgehog ligands are important growth and survival factors for primary lymphoma cells under in-vitro culture conditions. Growth and expansion of lymphoma cells in-vivo is also dependent on Hh signalling. 1e6 lymphoma cells expressing luciferase were injected into syngeneic C57BL/6 mice. […] Luciferase levels were measured by bioluminescence imaging 3 times per week. […] Therefore we conclude that hedgehog pathway inhibition reduces lymphoma growth in mice."}, "[2]": {"test_system": "basal cell carcinoma lesions (basaloid nests) in embryonic skin punches", "assay": "Embryonic skin punch assay (Shh-induced basaloid nests)", "format": "cell-based, Ptch+/−-LacZ mice", "details": "Mus musculus, completely blocks the basanoid formation, read-out: EC50 to block basanoid formation", "experimental": "Compounds of the invention are tested from their ability to treat non-melanoma skin cancer, i.e. basal cell carcinoma lesions using the skin punch assay. Mouse embryos from Ptch^+/−-LacZ mice, are collected and killed at late gestation (embryonic day 17.5) and their skins excised. Circular punches (4 mm in diameter are placed in a collagen-coated Transwell (BIOCOAT cell Culture Insert, Becton Dickinson Labware, Bedford, Mass.) and cultured at the air-liquid interface, with the epidermis side facing up. The culture medium contains 5% FBS in DMEM/F12 (3:1) with added epidermal growth factor, insulin, and hydrocortisone. To induce formation of basaloid nests, punches are grown in the presence of 1-2 μg/ml Shh for 4 or more days. Effects of compounds of the invention are tested by adding at the time of Shh addition or after 6 days of Shh pretreatment. Compounds of the invention show full inhibition (preventing lesion formation) at concentrations of 1 μM or less."}}, "data": [{"smiles": "Cc1c(C(=O)Nc2ccc(N3C[C@@H](C)O[C@@H](C)C3)nc2)cccc1-c1ccc(OC(F)(F)F)cc1", "note": "[Compound 153, N-(6-((2R,6S)-2,6-dimethylmorpholino)pyridin-3-yl)-2-methyl-4′-(trifluoromethoxy)biphenyl-3-carboxamide]", "values": [{"measurement": "lymphoma cell expansion (full efficacy)", "setting": "[1]", "value": "completely blocks lymphoma cell expansion"}, {"measurement": "EC50", "setting": "[2]", "value": "< 0.2", "unit": "µM"}]}]}
